{"source": "PubChem BioAssay (NCI)", "test_in_all_cases": "NCI anticancer screen, dose series, 48 h", "key": {"HCT-116 colon": {"test_system": "HCT-116 colon"}, "LOX IMVI melanoma": {"test_system": "LOX IMVI melanoma"}, "CAKI-1 renal": {"test_system": "CAKI-1 renal"}, "HCT-15 colon": {"test_system": "HCT-15 colon"}, "SF-295 CNS": {"test_system": "SF-295 CNS"}, "NCI/ADR-RES ovarian": {"test_system": "NCI/ADR-RES ovarian"}, "OVCAR-5 ovarian": {"test_system": "OVCAR-5 ovarian"}, "SF-539 CNS": {"test_system": "SF-539 CNS"}, "SNB-19 CNS": {"test_system": "SNB-19 CNS"}, "HL-60(TB) leukemia": {"test_system": "HL-60(TB) leukemia"}, "CCRF-CEM leukemia": {"test_system": "CCRF-CEM leukemia"}, "786-0 renal": {"test_system": "786-0 renal"}, "HS 578T breast": {"test_system": "HS 578T breast"}, "OVCAR-4 ovarian": {"test_system": "OVCAR-4 ovarian"}, "SW-620 colon": {"test_system": "SW-620 colon"}, "RXF 393 renal": {"test_system": "RXF 393 renal"}, "MDA-MB-435": {"test_system": "MDA-MB-435"}, "HT29 colon": {"test_system": "HT29 colon"}, "OVCAR-8 ovarian": {"test_system": "OVCAR-8 ovarian"}, "NCI-H522 lung": {"test_system": "NCI-H522 lung"}, "SF-268 CNS": {"test_system": "SF-268 CNS"}, "M14 melanoma": {"test_system": "M14 melanoma"}, "NCI-H460 lung": {"test_system": "NCI-H460 lung"}, "ACHN renal": {"test_system": "ACHN renal"}, "MDA-MB-231 breast": {"test_system": "MDA-MB-231 breast"}, "K-562 leukemia": {"test_system": "K-562 leukemia"}, "MOLT-4 leukemia": {"test_system": "MOLT-4 leukemia"}, "UO-31 renal": {"test_system": "UO-31 renal"}, "SR leukemia": {"test_system": "SR leukemia"}, "TK-10 renal": {"test_system": "TK-10 renal"}, "KM12 colon": {"test_system": "KM12 colon"}, "NCI-H226 lung": {"test_system": "NCI-H226 lung"}, "A549 NSCLC": {"test_system": "A549 NSCLC"}, "MCF7 breast": {"test_system": "MCF7 breast"}, "SK-MEL-5 melanoma": {"test_system": "SK-MEL-5 melanoma"}, "DU-145 prostate": {"test_system": "DU-145 prostate"}, "T-47D breast": {"test_system": "T-47D breast"}, "RPMI-8226 leukemia": {"test_system": "RPMI-8226 leukemia"}, "SK-OV-3 ovarian": {"test_system": "SK-OV-3 ovarian"}, "SNB-75 CNS": {"test_system": "SNB-75 CNS"}, "MALME-3M melanoma": {"test_system": "MALME-3M melanoma"}, "SK-MEL-2 melanoma": {"test_system": "SK-MEL-2 melanoma"}, "U251 CNS": {"test_system": "U251 CNS"}, "HOP-92 NSCLC": {"test_system": "HOP-92 NSCLC"}, "UACC-257 melanoma": {"test_system": "UACC-257 melanoma"}, "BT-549 breast": {"test_system": "BT-549 breast"}, "IGROV1 ovarian": {"test_system": "IGROV1 ovarian"}, "HCC-2998 colon": {"test_system": "HCC-2998 colon"}, "SK-MEL-28 melanoma": {"test_system": "SK-MEL-28 melanoma"}, "COLO 205 colon": {"test_system": "COLO 205 colon"}, "EKVX NSCLC": {"test_system": "EKVX NSCLC"}, "HOP-62 NSCLC": {"test_system": "HOP-62 NSCLC"}, "MDA-N": {"test_system": "MDA-N"}, "UACC-62 melanoma": {"test_system": "UACC-62 melanoma"}, "SN12C renal": {"test_system": "SN12C renal"}, "PC-3 prostate": {"test_system": "PC-3 prostate"}}, "note": "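The compound was tested at five concentrations on cells cultured in 96-well plates, with a 48-hour exposure period. At the TGI there is no net growth.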"}
{"smiles": "N#C/C(=C\\c1ccc(Cl)cc1)c1nc(-c2cc3ccccc3oc2=O)cs1", "values": [{"measurement": "TGI", "setting": "HCT-116 colon", "result": "> 100", "unit": "µM"}, {"measurement": "TGI", "setting": "LOX IMVI melanoma", "result": "> 100", "unit": "µM"}, {"measurement": "TGI", "setting": "CAKI-1 renal", "result": "> 100", "unit": "µM"}, {"measurement": "TGI", "setting": "HCT-15 colon", "result": "> 100", "unit": "µM"}, {"measurement": "TGI", "setting": "SF-295 CNS", "result": "> 100", "unit": "µM"}, {"measurement": "TGI", "setting": "NCI/ADR-RES ovarian", "result": "> 100", "unit": "µM"}, {"measurement": "TGI", "setting": "OVCAR-5 ovarian", "result": "> 100", "unit": "µM"}, {"measurement": "TGI", "setting": "SF-539 CNS", "result": "> 100", "unit": "µM"}, {"measurement": "TGI", "setting": "SNB-19 CNS", "result": "> 100", "unit": "µM"}, {"measurement": "TGI", "setting": "HL-60(TB) leukemia", "result": "> 100", "unit": "µM"}, {"measurement": "TGI", "setting": "CCRF-CEM leukemia", "result": "> 100", "unit": "µM"}, {"measurement": "TGI", "setting": "786-0 renal", "result": "> 100", "unit": "µM"}, {"measurement": "TGI", "setting": "HS 578T breast", "result": 37.7, "unit": "µM"}, {"measurement": "TGI", "setting": "OVCAR-4 ovarian", "result": "> 100", "unit": "µM"}, {"measurement": "TGI", "setting": "SW-620 colon", "result": "> 100", "unit": "µM"}, {"measurement": "TGI", "setting": "RXF 393 renal", "result": "> 100", "unit": "µM"}, {"measurement": "TGI", "setting": "MDA-MB-435", "result": "> 100", "unit": "µM"}, {"measurement": "TGI", "setting": "HT29 colon", "result": "> 100", "unit": "µM"}, {"measurement": "TGI", "setting": "OVCAR-8 ovarian", "result": "> 100", "unit": "µM"}, {"measurement": "TGI", "setting": "NCI-H522 lung", "result": 50.1, "unit": "µM"}, {"measurement": "TGI", "setting": "SF-268 CNS", "result": "> 100", "unit": "µM"}, {"measurement": "TGI", "setting": "M14 melanoma", "result": "> 100", "unit": "µM"}, {"measurement": "TGI", "setting": "NCI-H460 lung", "result": "> 100", "unit": "µM"}, {"measurement": "TGI", "setting": "ACHN renal", "result": "> 100", "unit": "µM"}, {"measurement": "TGI", "setting": "MDA-MB-231 breast", "result": 47.8, "unit": "µM"}, {"measurement": "TGI", "setting": "K-562 leukemia", "result": "> 100", "unit": "µM"}, {"measurement": "TGI", "setting": "MOLT-4 leukemia", "result": "> 100", "unit": "µM"}, {"measurement": "TGI", "setting": "UO-31 renal", "result": "> 100", "unit": "µM"}, {"measurement": "TGI", "setting": "SR leukemia", "result": "> 100", "unit": "µM"}, {"measurement": "TGI", "setting": "TK-10 renal", "result": 94.6, "unit": "µM"}, {"measurement": "TGI", "setting": "KM12 colon", "result": "> 100", "unit": "µM"}, {"measurement": "TGI", "setting": "NCI-H226 lung", "result": "> 100", "unit": "µM"}, {"measurement": "TGI", "setting": "A549 NSCLC", "result": "> 100", "unit": "µM"}, {"measurement": "TGI", "setting": "MCF7 breast", "result": "> 100", "unit": "µM"}, {"measurement": "TGI", "setting": "SK-MEL-5 melanoma", "result": "> 100", "unit": "µM"}, {"measurement": "TGI", "setting": "DU-145 prostate", "result": "> 100", "unit": "µM"}, {"measurement": "TGI", "setting": "T-47D breast", "result": "> 100", "unit": "µM"}, {"measurement": "TGI", "setting": "RPMI-8226 leukemia", "result": "> 100", "unit": "µM"}, {"measurement": "TGI", "setting": "SK-OV-3 ovarian", "result": "> 100", "unit": "µM"}, {"measurement": "TGI", "setting": "SNB-75 CNS", "result": "> 100", "unit": "µM"}, {"measurement": "TGI", "setting": "MALME-3M melanoma", "result": "> 100", "unit": "µM"}, {"measurement": "TGI", "setting": "SK-MEL-2 melanoma", "result": "> 100", "unit": "µM"}, {"measurement": "TGI", "setting": "U251 CNS", "result": 93.3, "unit": "µM"}, {"measurement": "TGI", "setting": "HOP-92 NSCLC", "result": 51.3, "unit": "µM"}, {"measurement": "TGI", "setting": "UACC-257 melanoma", "result": "> 100", "unit": "µM"}, {"measurement": "TGI", "setting": "BT-549 breast", "result": 31.8, "unit": "µM"}, {"measurement": "TGI", "setting": "IGROV1 ovarian", "result": "> 100", "unit": "µM"}, {"measurement": "TGI", "setting": "HCC-2998 colon", "result": "> 100", "unit": "µM"}, {"measurement": "TGI", "setting": "SK-MEL-28 melanoma", "result": "> 100", "unit": "µM"}, {"measurement": "TGI", "setting": "COLO 205 colon", "result": "> 100", "unit": "µM"}, {"measurement": "TGI", "setting": "EKVX NSCLC", "result": "> 100", "unit": "µM"}, {"measurement": "TGI", "setting": "HOP-62 NSCLC", "result": 58.2, "unit": "µM"}, {"measurement": "TGI", "setting": "MDA-N", "result": "> 100", "unit": "µM"}, {"measurement": "TGI", "setting": "UACC-62 melanoma", "result": 85.3, "unit": "µM"}, {"measurement": "TGI", "setting": "SN12C renal", "result": "> 100", "unit": "µM"}, {"measurement": "TGI", "setting": "PC-3 prostate", "result": "> 100", "unit": "µM"}]}
